Laboratory results reported in patent publication US12459951B2, “Compounds that interact with RAS superfamily proteins for treatment of cancers, inflammatory diseases, rasopathies, and fibrotic disease” (SHY Therapeutics, LLC, priority 2022, dated 2025).

Key:
[1] = test system: Akt phosphorylation; assay: Akt Phosphorylation Assay (western blot), Panc-1; type: cell-based, human; details: at 10 μM, * = activation
Summary of the method: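 Phospho-Akt (Ser473) was measured by western blot in lysates of KRas G12D Panc-1 cells exposed to test compound for 6 h at 37 °C, either at 10 μM final with 0.3% DMSO or as serial dilutions for IC50. One format used overnight 0.5% FBS starvation followed by a 15 min pulse of 1.5 ng/ml EGF. The other used cells in 10% FBS with no stimulation.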

[2] = test system: KRas wild type; assay: Ras GTP Binding Domain Inhibition Assay (Ras Superfamily Assay); details: at 20 μM; for KRas wild type + SOS: % inh.: with SOS; for KRas wild type: % inh.: without SOS
Summary of the method: (§1)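 Binding of 100 nM fluorescent GTP (Cy3 or Cy5, 45 min, room temperature) was read after washes from plate-captured His-tagged protein. Beforehand, compounds at 20 μM or in dilution series for IC50 sat 3 h on the protein in Tris buffer pH 7.4 or 7.0 with 1% DMSO, Sos GEF optionally added for the last hour.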

[3] = biological target: T1, Rac-1 (Homo sapiens, UniProt P63000); assay: as above; details: read-out: Rac-1: % inh.
T1 construct: made in house
Summary of the method: as §1

[4] = test system: KRas G12D mutant; assay: as above; details: at 20 μM; for KRas G12D mutant + SOS: % inh.: with SOS; for KRas G12D mutant: % inh.: without SOS
Summary of the method: as §1

KRas wild type + SOS: % inh. [2]	KRas wild type: % inh. [2]	inhibition at 20 µM [3]	KRas G12D mutant + SOS: % inh. [4]	KRas G12D mutant: % inh. [4]	Compound	% inh of Akt phosphorylation in Panc-1 [1]
D (D = 76-100% inhibition)	D (D = 76-100% inhibition)	76 to 100%	D (D = 76-100% inhibition)	D (D = 76-100% inhibition)	Cc1c(-c2ccn(C)n2)cn2nc(-c3nccn3C)nc(Nc3ccc(N(C)C)cn3)c12 [Compound 227, N5,N5-Dimethyl-N2-(5-methyl-2-(1-methyl-1H-imidazol-2-yl)-6-(1-methyl-1H-pyrazol-3-yl)pyrrolo[2,1-f][1,2,4]triazin-4-yl)pyridine-2,5-diamine]	D* (85-100% activation)
C (C = 50-75% inhibition)	C (C = 50-75% inhibition)	76 to 100%	C (C = 50-75% inhibition)	D (D = 76-100% inhibition)	Cc1c(-c2ccn(C)n2)cn2nc(-c3nccn3C)nc(Nc3ccc(N4CCCC4)cn3)c12 [Compound 228, 5-Methyl-2-(1-methyl-1H-imidazol-2-yl)-6-(1-methyl-1H-pyrazol-3-yl)-N-(5-(pyrrolidin-1-yl)pyridin-2-yl)pyrrolo[2,1-f][1,2,4]triazin-4-amine]	D* (85-100% activation)
D (D = 76-100% inhibition)	C (C = 50-75% inhibition)	76 to 100%	D (D = 76-100% inhibition)	D (D = 76-100% inhibition)	CCOc1ccc(Nc2nc(-c3nccn3C)nn3cc(-c4ccn(C)n4)c(C)c23)nc1 [Compound 229, N-(5-Ethoxypyridin-2-yl)-5-methyl-2-(1-methyl-1H-imidazol-2-yl)-6-(1-methyl-1H-pyrazol-3-yl)pyrrolo[2,1-f][1,2,4]triazin-4-amine]	D* (85-100% activation)
D (D = 76-100% inhibition)	D (D = 76-100% inhibition)	76 to 100%	D (D = 76-100% inhibition)	D (D = 76-100% inhibition)	Cc1c(-c2ccn(C)n2)cn2nc(-c3nccn3C)nc(Nc3ccc(OCC(F)(F)F)cn3)c12 [Compound 230, 5-Methyl-2-(1-methyl-1H-imidazol-2-yl)-6-(1-methyl-1H-pyrazol-3-yl)-N-(5-(2,2,2-trifluoroethoxy)pyridin-2-yl)pyrrolo[2,1-f][1,2,4]triazin-4-amine]	D* (85-100% activation)
B (B = 26-49% inhibition)	B (B = 26-49% inhibition)	76 to 100%	C (C = 50-75% inhibition)	C (C = 50-75% inhibition)	Cc1c(-c2ccn(C)n2)cn2nc(-c3nccn3C)nc(Nc3ccc(OC(F)F)cn3)c12 [Compound 231, N-(5-(Difluorometh-oxy)pyridin-2-yl)-5-methyl-2-(1-methyl-1H-imidazol-2-yl)-6-(1-methyl-1H-pyrazol-3-yl)pyrrolo[2,1-f][1,2,4]triazin-4-amine]	D* (85-100% activation)
D (D = 76-100% inhibition)	D (D = 76-100% inhibition)	76 to 100%	D (D = 76-100% inhibition)	D (D = 76-100% inhibition)	Cc1c(-c2ccn(C)n2)cn2nc(-c3nccn3C)nc(Nc3ccc(OC(F)(F)F)cn3)c12 [Compound 232, 5-Methyl-2-(1-methyl-1H-imidazol-2-yl)-6-(1-methyl-1H-pyrazol-3-yl)-N-(5-(trifluoro-methoxy)pyridin-2-yl)pyrrolo[2,1-f][1,2,4]triazin-4-amine]	D* (85-100% activation)
D (D = 76-100% inhibition)	D (D = 76-100% inhibition)	76 to 100%	D (D = 76-100% inhibition)	D (D = 76-100% inhibition)	Cc1c(-c2ccn(C)n2)cn2nc(-c3nccn3C)nc(Nc3ccc(C(F)(F)F)cn3)c12 [Compound 233, 5-Methyl-2-(1-methyl-1H-imidazol-2-yl)-6-(1-methyl-1H-pyrazol-3-yl)-N-(5-(trifluoromethyl)pyridin-2-yl)pyrrolo[2,1-f][1,2,4]triazin-4-amine]	D* (85-100% activation)
D (D = 76-100% inhibition)	C (C = 50-75% inhibition)	76 to 100%	D (D = 76-100% inhibition)	D (D = 76-100% inhibition)	Cc1c(-c2ccn(C)n2)cn2nc(-c3nccn3C)nc(Nc3ccc(C(F)F)cn3)c12 [Compound 234, N-(5-(Difluoromethyl)pyridin-2-yl)-5-methyl-2-(1-methyl-1H-imidazol-2-yl)-6-(1-methyl-1H-pyrazol-3-yl)pyrrolo[2,1-f][1,2,4]triazin-4-amine]	D* (85-100% activation)
B (B = 26-49% inhibition)	C (C = 50-75% inhibition)	50 to 75%	C (C = 50-75% inhibition)	C (C = 50-75% inhibition)	COc1cc(Nc2nc(-c3nccn3C)nn3cc(-c4ccn(C)n4)c(C)c23)ncc1C [Compound 235, N-(4-Methoxy-5-methylpyridin-2-yl)-5-methyl-2-(1-methyl-1H-imidazol-2-yl)-6-(1-methyl-1H-pyrazol-3-yl)pyrrolo[2,1-f][1,2,4]triazin-4-amine]	D* (85-100% activation)
B (B = 26-49% inhibition)	B (B = 26-49% inhibition)	50 to 75%	B (B = 26-49% inhibition)	C (C = 50-75% inhibition)	COc1cnc(Nc2nc(-c3nccn3C)nn3cc(-c4ccn(C)n4)c(C)c23)cc1C [Compound 236, N-(5-Methoxy-4-methylpyridin-2-yl)-5-methyl-2-(1-methyl-1H-imidazol-2-yl)-6-(1-methyl-1H-pyrazol-3-yl)pyrrolo[2,1-f][1,2,4]triazin-4-amine]	B* (26-49% activation)
D (D = 76-100% inhibition)	D (D = 76-100% inhibition)	76 to 100%	D (D = 76-100% inhibition)	D (D = 76-100% inhibition)	COc1cc(Nc2nc(-c3nccn3C)nn3cc(-c4ccn(C)n4)c(C)c23)ncc1F [Compound 237, N-(5-Fluoro-4-methoxypyridin-2-yl)-5-methyl-2-(1-methyl-1H-imidazol-2-yl)-6-(1-methyl-1H-pyrazol-3-yl)pyrrolo[2,1-f][1,2,4]triazin-4-amine]	D* (85-100% activation)
D (D = 76-100% inhibition)	D (D = 76-100% inhibition)	76 to 100%	D (D = 76-100% inhibition)	D (D = 76-100% inhibition)	COc1cc(Nc2nc(-c3nccn3C)nn3cc(-c4ccn(C)n4)c(C)c23)ncc1C1CC1 [Compound 238, N-(5-Cyclopropyl-4-methoxypyridin-2-yl)-5-methyl-2-(1-methyl-1H-imidazol-2-yl)-6-(1-methyl-1H-pyrazol-3-yl)pyrrolo[2,1-f][1,2,4]triazin-4-amine]	D* (85-100% activation)
D (D = 76-100% inhibition)	D (D = 76-100% inhibition)	76 to 100%	D (D = 76-100% inhibition)	D (D = 76-100% inhibition)	Cc1cnc2c(c1)CCN2c1nc(-c2nccn2C)nn2cc(-c3ccn(C)n3)c(C)c12 [Compound 239, 5-Methyl-2-(1-methyl-1H-imidazol-2-yl)-6-(1-methyl-1H-pyrazol-3-yl)-4-(5-methyl-2,3-dihydro-1H-pyrrolo[2,3-b]pyridin-1-yl)pyrrolo[2,1-f][1,2,4]triazine]	D* (85-100% activation)
D (D = 76-100% inhibition)	D (D = 76-100% inhibition)	76 to 100%	D (D = 76-100% inhibition)	D (D = 76-100% inhibition)	Cc1c(-c2ccn(C)n2)cn2nc(-c3nccn3C)nc(Nc3cc(C(C)(C)O)ccn3)c12 [Compound 240, 2-(2-((5-Methyl-2-(1-methyl-1H-imidazol-2-yl)-6-(1-methyl-1H-pyrazol-3-yl)pyrrolo[2,1-f][1,2,4]triazin-4-yl)amino)pyridin-4-yl)propan-2-ol]	D* (85-100% activation)
D (D = 76-100% inhibition)	D (D = 76-100% inhibition)	76 to 100%	D (D = 76-100% inhibition)	D (D = 76-100% inhibition)	Cc1c(-c2ccn(C)n2)cn2nc(-c3nccn3C)nc(Nc3ccc(C(C)(C)O)cn3)c12 [Compound 241, 2-(6-((5-Methyl-2-(1-methyl-1H-imidazol-2-yl)-6-(1-methyl-1H-pyrazol-3-yl)pyrrolo[2,1-f][1,2,4]triazin-4-yl)amino)pyridin-3-yl)propan-2-ol]	D* (85-100% activation)
